According to patent US20110136877A1, “2-PHENYL PHENOXYACETIC ACIDS USEFUL FOR TREATING INFLAMMATORY DISORDERS” (LIGAND PHARMACEUTICALS INC., priority 2008, published 2011):
pIC50: −log10 of the molar value.

What follows are compounds tested against T1, human CRTH2 (Homo sapiens, UniProt Q9Y5Y4) (assay: [35S]GTPγS binding assay (SPA)). Conditions: not given.
T1 construct: expressed in transfected cells; membranes used
T1 sequence (Q9Y5Y4 1-395): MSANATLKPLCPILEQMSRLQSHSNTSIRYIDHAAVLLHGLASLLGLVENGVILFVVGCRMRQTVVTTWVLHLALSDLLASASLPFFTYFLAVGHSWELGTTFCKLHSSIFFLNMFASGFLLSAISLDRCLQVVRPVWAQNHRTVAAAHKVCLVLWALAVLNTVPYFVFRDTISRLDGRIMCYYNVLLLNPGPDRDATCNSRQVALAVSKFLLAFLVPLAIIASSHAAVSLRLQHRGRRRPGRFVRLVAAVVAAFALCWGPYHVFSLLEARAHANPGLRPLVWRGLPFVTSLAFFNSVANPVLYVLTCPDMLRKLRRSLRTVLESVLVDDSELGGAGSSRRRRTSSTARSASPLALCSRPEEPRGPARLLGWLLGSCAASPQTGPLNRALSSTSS
Type: biochemical
Procedure: [^35S]GTPγS Binding Assay
SPA [^35S]GTPγS binding was performed on membranes from CHO-K1 cells stably expressing human CRTH2. To a white, clear-bottomed 384-well plate, 4 μg membrane protein was incubated in the binding buffer (20 mM HEPES, pH 7.4, 10 mM MgCl2, 300 mM NaCl, 0.2% BSA) with 60 nM DHK-PGD2, 500 pM [^35S]GTPγS, 10 μM GDP, and 100 μg wheat germ agglutinin-coupled SPA beads (GE Healthcare) with and without increasing concentrations of compounds. The final assay volume was 40 μL and contained 1% DMSO. Samples were incubated for 2 h at ambient temperature. Plates were centrifuged 5 min at 1500 rpm. Plates were read after an additional 4 h using the Trilux 1450 Microbeta (PerkinElmer) with a 30 sec/well reading time.

| Compound | pIC50 |
| --- | --- |
| CN(Cc1cccc(-c2cc(C(F)(F)F)ccc2OCC(=O)O)c1)C(=O)Oc1ccccc1 [Compound 24, {[3′-{[methyl(phenoxycarbonyl)amino]methyl}-5-(trifluoromethyl)biphenyl-2-yl]oxy}acetic acid] | 6.00 to 7.00 |

Same assay, conditions: membranes from CHO-K1 cells stably expressing human CRTH2; 60 nM DHK-PGD2; read-out: CRTH2 GTPγS assay IC50

| Compound | pIC50 |
| --- | --- |
| CCCCNC(=O)CN(Cc1cccc(-c2cc(F)ccc2OCC(=O)O)c1)C(=O)OCCCC [Compound 7, {[3′-({(butoxy carbonyl)[2-(butylamino)-2-oxoethyl]amino}methyl)-5-fluorobiphenyl-2-yl]oxy}acetic acid] | > 7.00 |
| CCCCNC(=O)CN(Cc1cccc(-c2cc(C(F)(F)F)ccc2OCC(=O)O)c1)C(=O)OCCCC [Compound 9, {[3′-({(butoxy carbonyl)[2-(butylamino)-2-oxoethyl]amino}methyl)-5-(trifluoromethyl)biphenyl-2-yl]oxy}acetic acid] | > 7.00 |
| CCCCOC(=O)N(CC(=O)NC)Cc1cccc(-c2cc(C(F)(F)F)ccc2OCC(=O)O)c1 [Compound 20, {[3′-({(butoxycarbonyl) [2-(methylamino)-2-oxoethyl]amino}methyl)-5-(trifluoromethyl)biphenyl-2-yl]oxy}acetic acid] | > 7.00 |
| CCCCOC(=O)N(C)Cc1cccc(-c2cc(C(F)(F)F)ccc2OCC(=O)O)c1 [Compound 18, {[3′-{[(butoxycarbonyl)(methyl)amino]methyl}-5-(trifluoromethyl)biphenyl-2-yl]oxy}acetic acid] | > 7.00 |
| CCCCNC(=O)CN(CCc1ccc(-c2ccccc2OCC(=O)O)cc1)C(=O)OCCCC [Compound 36, {[4′-({(butoxy carbonyl)[2-(butylamino)-2-oxoethyl]amino}ethyl)biphenyl-2-yl]oxy}acetic acid] | > 7.00 |
| CCCCOC(=O)N(Cc1cccc(-c2cc(C(F)(F)F)ccc2OCC(=O)O)c1)c1ccccc1 [Compound 25, {[3′-{[(butoxycarbonyl)(phenyl)amino]methyl}-5-(trifluoromethyl)biphenyl-2-yl]oxy}acetic acid] | 6.00 to 7.00 |
| CCCCNC(=O)CN(Cc1cccc(-c2ccccc2OCC(=O)O)c1)C(=O)Cc1ccccc1 [Compound 13, {[3′-{[[2-(butylamino)-2-oxoethyl](phenylacetyl)amino]methyl}-biphenyl-2-yl]oxy}acetic acid] | > 7.00 |
| CCCCNC(=O)CN(Cc1cccc(-c2ccccc2OCC(=O)O)c1)C(=O)OCCCC [Compound 6, {[3′-({(butoxy carbonyl)[2-(butylamino)-2-oxoethyl]amino}methyl)biphenyl-2-yl]oxy}acetic acid] | > 7.00 |
| CCCCOC(=O)N(CCCC)Cc1cccc(-c2cc(C(F)(F)F)ccc2OCC(=O)O)c1 [Compound 19, {[3′-{[(butoxycarbonyl)(butyl)amino]methyl}-5-(trifluoromethyl)biphenyl-2-yl]oxy}acetic acid] | > 7.00 |
| CN(Cc1cccc(-c2cc(C(F)(F)F)ccc2OCC(=O)O)c1)C(=O)Nc1ccccc1 [Compound 28, {[3′-{[(anilinocarbonyl)(methyl)amino]methyl}-5-(trifluoromethyl)biphenyl-2-yl]oxy}acetic acid] | 6.00 to 7.00 |
| CN(Cc1cccc(-c2cc(C(F)(F)F)ccc2OCC(=O)O)c1)C(=O)Nc1cccnc1 [Compound 29] | 6.00 to 7.00 |
| CN(Cc1cccc(-c2cc(C(F)(F)F)ccc2OCC(=O)O)c1)S(=O)(=O)c1cccnc1 [Compound 34, {[3′-{[(pyridine-3-ylsulfonyl)(methyl)amino]methyl}-5-(trifluoromethyl)biphenyl-2-yl]oxy}acetic acid] | 6.00 to 7.00 |
| CCCCNC(=O)N(C)Cc1cccc(-c2cc(C(F)(F)F)ccc2OCC(=O)O)c1 [Compound 30, {[3′-{[(butylaminocarbonyl)(methyl)amino]methyl}-5-(trifluoromethyl)biphenyl-2-yl]oxy}acetic acid] | > 7.00 |
| CN(Cc1cccc(-c2cc(C(F)(F)F)ccc2OCC(=O)O)c1)C(=O)c1cccnc1 [Compound 32, {[3′-{[methyl(pyridine-3-ylcarbonyl)amino]methyl}-5-(trifluoromethyl)biphenyl-2-yl]oxy}acetic acid] | > 7.00 |
| CC(=O)N(Cc1cccc(-c2cc(C(F)(F)F)ccc2OCC(=O)O)c1)c1ccccc1 [Compound 22, {[3′-{[acetyl(phenyl)amino]methyl}-5-(trifluoromethyl)biphenyl-2-yl]oxy}acetic acid] | 6.00 to 7.00 |
| CNC(=O)CN(Cc1cccc(-c2cc(C(F)(F)F)ccc2OCC(=O)O)c1)C(C)=O [Compound 21, {[3′-({(acetyl)[2-(methylamino)-2-oxoethyl]amino}methyl)-5-(trifluoromethyl)biphenyl-2-yl]oxy}acetic acid] | 6.00 to 7.00 |
| CCCCNC(=O)CN(Cc1cccc(-c2cc(Cl)ccc2OCC(=O)O)c1)C(=O)OCCCC [Compound 11, {[3′-({(butoxy carbonyl)[2-(butylamino)-2-oxoethyl]amino}methyl)-5-chlorobiphenyl-2-yl]oxy}acetic acid] | > 7.00 |
| CCCCNC(=O)CN(Cc1cccc(-c2cc(C)ccc2OCC(=O)O)c1)C(=O)OCCCC [Compound 8, {[3′-({(butoxy carbonyl)[2-(butylamino)-2-oxoethyl]amino}methyl)-5-methylbiphenyl-2-yl]oxy}acetic acid] | > 7.00 |
| CCCCOC(=O)N(Cc1cccc(-c2cc(C(F)(F)F)ccc2OCC(=O)O)c1)Cc1nccs1 [Compound 27, {[3′-{[(butoxycarbonyl)(1,3-thiazol-2-ylmethyl)amino]methyl}-5-(trifluoromethyl)biphenyl-2-yl]oxy}acetic acid] | > 7.00 |
| CN(Cc1cccc(-c2cc(C(F)(F)F)ccc2OCC(=O)O)c1)C(=O)c1ccccc1 [Compound 23, {[3′-{[methyl(phenylcarbonyl)amino]methyl}-5-(trifluoromethyl)biphenyl-2-yl]oxy}acetic acid] | 6.00 to 7.00 |
| CN(Cc1cccc(-c2cc(C(F)(F)F)ccc2OCC(=O)O)c1)S(=O)(=O)c1ccccc1 [Compound 33, {[3′-{[(benzensulfonyl)(methyl)amino]methyl}-5-(trifluoromethyl)biphenyl-2-yl]oxy}acetic acid] | 6.00 to 7.00 |
